Data: patent US5385941A, “Salts/ion pairs of non-steroidal anti-inflammatory drugs in various dosage forms” (Warner-Lambert Company, priority 1993, dated 1995)
≈ marks a conversion by molar mass, not a printed value.

Experiment: physchem
Details: water

solubility: 30 µg/mL (≈ 101 µM)
SMILES: Cc1ccc(Cl)c(Nc2ccccc2C(=O)O)c1Cl [MA, Meclofenamic acid]
